According to patent US20250265710A1, “NON-INVASIVE LASER SPECKLE IMAGING OF EXTRA-EMBRYONIC BLOOD VESSELS” (California Institute of Technology, priority 2024, published 2025):
Where two headings read alike, the source gives them in different places.

Tested on: chick embryonic heart
Description: These drugs were injected through the shell ventral to chick embryos at a developmental HH stage between HH16-19. The needle was guided to the embryos by the LLSCI system in live view mode.
In one example, before imaging, the eggs are injected with a drug by implementing a live view mode to ascertain the position of the embryo's heart and inserted a needle into the eggshell and the drug was injected into the area ventral to the embryo in a volume of 25-150 μL. This may result in a hole in the eggshell having a diameter between 0.6 and 0.8 mm. The hole can be covered by transparent tape to ensure the continued development of the embryo. After injection, the egg may be placed in an incubator (e.g., incubator 440 in FIG. 4) and imaged at regular intervals using a GUI (e.g., GUI 487 in FIG. 4). FIG. 22 is a schematic representation of a procedure for using LSCI imaging to determine the location of avian embryos for injection, according to an embodiment.
FIG. 23A depicts images of extraembryonic blood vessels of the control egg generated by the LSCI system 400 in FIG. 4 and images (frames) of a movie showing the dynamics of the blood vessels at time=3 minutes, time=34 minutes, time=73 minutes, time=129 minutes, time=250 minutes, and time=270 minutes. FIG. 23A also includes a time trace of BFI at these times. The time trace of the BFI is indicative of heart rate.
To quantify and characterize the effects of injecting a drug solution onto the CAM, an LSCI system was used to extract four features from the blood vessels images and blood flow graphs. FIG. 24 depicts examples of extraembryonic blood vessel images 2410, 2420 before and after feature extraction, and a heartbeat signal, according to embodiments. Blood vessel skeleton, branches, and the size of the CAM visualized. […] The LSCI system implemented the LSCI process 1400 shown in FIG. 14 to extract the features.
In various examples, the length of the blood vessels may be calculated as the total length of the vessel skeleton in the blood vessel image. In various examples, the number of branches may be determined by counting the branch points connecting the blood vessels and isolated vessel segments in the blood vessel images. In various examples, the vessel area may be obtained by calculating the area of the CAM in the blood vessel image. In various examples, the heart rate may be measured from the Fourier transform of the blood flow signal.
Tests were also performed on five eggs for each of the two Amlodipine concentrations. […] FIG. 25B includes a plot of heart rate 2530, a plot of length of blood vessels 2532, a plot of the number of branches 2540, and a plot of the size of the area vaculosa (AV) 2542 for test eggs injected with two different Amlodipine concentrations, according to embodiments.

## CCOC(=O)C1=C(COCCN)NC(C)=C(C(=O)OC)C1c1ccccc1Cl (centres unmarked) [Amlodipine]
Higher doses >60 nmol
  embryo viability: embryo died at the time of injection, or its later development was heavily compromised
  time to heart rate nadir: 20 min
Lowest dose tested (<50 nmol)
  embryo development when incubated 7 days after the experiment: developed normally

## COC(=O)C1=C(C)NC(C)=C(C(=O)OC)C1c1ccccc1[N+](=O)[O-] [Nifedipine]
Higher doses above 5 nmol
  time after injection without begin of return of heart rate to normal levels: > 100 min
  time to heart rate nadir: 20 min
Low doses around 3 nmol
  period over which heart rate dropped: 40 min
One egg, 50 μL solution with 3 nmole
  heart rate an hour after injection: 100 bpm
One egg, 50 μL solution with 3 nmole, dropped from 132 bpm pre-injection
  heart rate after injection: 94 bpm
